Reference: PubChem BioAssay (NCI)
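Compound exposure: 48 hours, 5 concentrations, 96-well plates. Abbreviation: GI50, concentration required for 50% inhibition of growth. TGI: concentration producing complete growth inhibition.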

How the values were obtained:
Test in all cases: NCI tumour cell line growth inhibition, 48 h
786-0 renal = test system: 786-0 renal
A498 renal = test system: A498 renal
A549 NSCLC = test system: A549 NSCLC
ACHN renal = test system: ACHN renal
BT-549 breast = test system: BT-549 breast
CCRF-CEM leukemia = test system: CCRF-CEM leukemia
COLO 205 colon = test system: COLO 205 colon
DU-145 prostate = test system: DU-145 prostate
HCC-2998 colon = test system: HCC-2998 colon
HCT-116 colon = test system: HCT-116 colon
HCT-15 colon = test system: HCT-15 colon
HL-60(TB) leukemia = test system: HL-60(TB) leukemia
HOP-62 NSCLC = test system: HOP-62 NSCLC
HOP-92 NSCLC = test system: HOP-92 NSCLC
HS 578T breast = test system: HS 578T breast
HT29 colon = test system: HT29 colon
IGROV1 ovarian = test system: IGROV1 ovarian
K-562 leukemia = test system: K-562 leukemia
KM12 colon = test system: KM12 colon
LOX IMVI melanoma = test system: LOX IMVI melanoma
M14 melanoma = test system: M14 melanoma
MALME-3M melanoma = test system: MALME-3M melanoma
MCF7 breast = test system: MCF7 breast
MDA-MB-231 breast = test system: MDA-MB-231 breast
MDA-MB-435 = test system: MDA-MB-435
MOLT-4 leukemia = test system: MOLT-4 leukemia
NCI-H226 lung = test system: NCI-H226 lung
NCI-H23 lung = test system: NCI-H23 lung

With `Cc1nc2cc(Nc3nc(Nc4ccc(F)cc4)nc(-c4ccc(Cl)cc4)n3)ccc2n1Cc1ccccc1` as the molecule, how does the GI50 (786-0 renal) read?
The GI50 was 6.48 µM.

And the TGI (786-0 renal)?
Its TGI is 52.3 µM.

And the GI50 (A498 renal)?
The GI50 was 4.54 µM.

And the TGI (A498 renal)?
The TGI was > 100 µM.

What about the GI50 (A549 NSCLC) of the same molecule?
The GI50 was 6.18 µM.

And the TGI (A549 NSCLC)?
Its TGI is 36.9 µM.

What about the GI50 (ACHN renal) of the same molecule?
The GI50 was 3.89 µM.

What about the TGI (ACHN renal) of the same molecule?
Its TGI is > 100 µM.

And the GI50 (BT-549 breast)?
Its GI50 is 6.14 µM.

What about the TGI (BT-549 breast) of the same molecule?
Its TGI is 39.8 µM.

What about the GI50 (CCRF-CEM leukemia) of the same molecule?
Its GI50 is 3.35 µM.

What about the TGI (CCRF-CEM leukemia) of the same molecule?
Its TGI is > 100 µM.

And the GI50 (COLO 205 colon)?
The GI50 was 3.17 µM.

What about the TGI (COLO 205 colon) of the same molecule?
Its TGI is 59.8 µM.

What about the GI50 (DU-145 prostate) of the same molecule?
Its GI50 is 23.4 µM.

What about the TGI (DU-145 prostate) of the same molecule?
Its TGI is > 100 µM.

What about the GI50 (HCC-2998 colon) of the same molecule?
Its GI50 is 6.36 µM.

And the TGI (HCC-2998 colon)?
Its TGI is > 100 µM.

What about the GI50 (HCT-116 colon) of the same molecule?
The GI50 was 5.04 µM.

And the TGI (HCT-116 colon)?
Its TGI is > 100 µM.

And the GI50 (HCT-15 colon)?
The GI50 was 3.77 µM.

And the TGI (HCT-15 colon)?
Its TGI is > 100 µM.

What about the GI50 (HL-60(TB) leukemia) of the same molecule?
The GI50 was 3.28 µM.

What about the TGI (HL-60(TB) leukemia) of the same molecule?
Its TGI is > 100 µM.

What about the GI50 (HOP-62 NSCLC) of the same molecule?
Its GI50 is 7.36 µM.

And the TGI (HOP-62 NSCLC)?
The TGI was 27.3 µM.

And the GI50 (HOP-92 NSCLC)?
Its GI50 is 1.74 µM.

What about the TGI (HOP-92 NSCLC) of the same molecule?
The TGI was 23.7 µM.

What about the GI50 (HS 578T breast) of the same molecule?
Its GI50 is 12.2 µM.

And the TGI (HS 578T breast)?
The TGI was > 100 µM.

And the GI50 (HT29 colon)?
Its GI50 is 4.63 µM.

And the TGI (HT29 colon)?
Its TGI is > 100 µM.

And the GI50 (IGROV1 ovarian)?
The GI50 was 5.9 µM.

What about the TGI (IGROV1 ovarian) of the same molecule?
Its TGI is > 100 µM.

And the GI50 (K-562 leukemia)?
The GI50 was 5.13 µM.

What about the TGI (K-562 leukemia) of the same molecule?
Its TGI is > 100 µM.

And the GI50 (KM12 colon)?
The GI50 was 4.32 µM.

What about the TGI (KM12 colon) of the same molecule?
The TGI was > 100 µM.

What about the GI50 (LOX IMVI melanoma) of the same molecule?
Its GI50 is 12.6 µM.

What about the TGI (LOX IMVI melanoma) of the same molecule?
The TGI was > 100 µM.

And the GI50 (M14 melanoma)?
The GI50 was 4.42 µM.

What about the TGI (M14 melanoma) of the same molecule?
Its TGI is > 100 µM.

And the GI50 (MALME-3M melanoma)?
Its GI50 is 5.29 µM.

What about the TGI (MALME-3M melanoma) of the same molecule?
The TGI was 22.4 µM.

What about the GI50 (MCF7 breast) of the same molecule?
Its GI50 is 3.1 µM.

And the TGI (MCF7 breast)?
The TGI was > 100 µM.

What about the GI50 (MDA-MB-231 breast) of the same molecule?
Its GI50 is 9.97 µM.

What about the TGI (MDA-MB-231 breast) of the same molecule?
Its TGI is > 100 µM.

And the GI50 (MDA-MB-435)?
Its GI50 is 3.6 µM.

What about the TGI (MDA-MB-435) of the same molecule?
Its TGI is > 100 µM.

And the GI50 (MOLT-4 leukemia)?
The GI50 was 3.09 µM.

What about the TGI (MOLT-4 leukemia) of the same molecule?
The TGI was > 100 µM.

And the GI50 (NCI-H226 lung)?
Its GI50 is 11.4 µM.

And the TGI (NCI-H226 lung)?
The TGI was 37.2 µM.

What about the GI50 (NCI-H23 lung) of the same molecule?
The GI50 was 14.7 µM.
